From PubChem BioAssay (NCI)
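Cells were grown in 96-well plates and exposed to each compound for 48 hours at five concentrations; endpoints were interpolated linearly between bracketing concentrations, or set to the highest concentration if not reached. TGI: total growth inhibition.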

Legend:
Test in all cases: NCI tumour cell line growth inhibition, 48 h
BT-549 breast = tested on: BT-549 breast
CAKI-1 renal = tested on: CAKI-1 renal
COLO 205 colon = tested on: COLO 205 colon
HCC-2998 colon = tested on: HCC-2998 colon
HCT-15 colon = tested on: HCT-15 colon
HOP-62 NSCLC = tested on: HOP-62 NSCLC
KM12 colon = tested on: KM12 colon
MCF7 breast = tested on: MCF7 breast
MDA-MB-435 = tested on: MDA-MB-435
NCI-H23 lung = tested on: NCI-H23 lung
OVCAR-4 ovarian = tested on: OVCAR-4 ovarian
OVCAR-8 ovarian = tested on: OVCAR-8 ovarian
PC-3 prostate = tested on: PC-3 prostate
SF-539 CNS = tested on: SF-539 CNS
SK-MEL-2 melanoma = tested on: SK-MEL-2 melanoma
SK-OV-3 ovarian = tested on: SK-OV-3 ovarian
SW-620 colon = tested on: SW-620 colon
UO-31 renal = tested on: UO-31 renal
A549 NSCLC = tested on: A549 NSCLC
SR leukemia = tested on: SR leukemia

Measured: TGI

C[C@H](CCC1=NCCN1)[C@H]1CC[C@H]2[C@@H]3[C@H](O)C[C@@H]4C[C@H](O)CC[C@]4(C)[C@H]3CC[C@]12C
21.1 µM: COLO 205 colon
27.8 µM: UO-31 renal
26.7 µM: MDA-MB-435
21 µM: PC-3 prostate
27.7 µM: KM12 colon
28.5 µM: HCC-2998 colon | MCF7 breast
25.5 µM: SF-539 CNS
24.7 µM: BT-549 breast
27.3 µM: NCI-H23 lung
30.1 µM: HCT-15 colon | SW-620 colon
33.1 µM: SK-OV-3 ovarian
28.1 µM: OVCAR-4 ovarian
40.9 µM: CAKI-1 renal
29.9 µM: SK-MEL-2 melanoma
29 µM: OVCAR-8 ovarian
29.7 µM: HOP-62 NSCLC

CC12CC3CC/C(=N\O)C(C1)C3(N1CCOCC1)C/C2=N/O (stereo unspecified)
not listed: BT-549 breast
> 100 µM: all other assays above

CSCCC(NCc1c(O)ccc2ccc(=O)oc12)C(=O)O (stereo unspecified)
not listed: BT-549 breast
> 100 µM: all other assays above

Cc1ccc(S(=O)(=O)NC(=O)NC(CO)C(=O)O)cc1 (stereo unspecified)
not listed: CAKI-1 renal | HCC-2998 colon | MDA-MB-435
> 100 µM: all other assays above

O=S(=O)(c1cc(Cl)ccc1Cl)N1CCN(c2ccc(Cl)c(Cl)c2)CC1
51.4 µM: OVCAR-8 ovarian
32.4 µM: OVCAR-4 ovarian
39.6 µM: HOP-62 NSCLC
45.3 µM: CAKI-1 renal
53.5 µM: SF-539 CNS
not listed: COLO 205 colon | MDA-MB-435 | SK-MEL-2 melanoma | SK-OV-3 ovarian
> 100 µM: all other assays above

O=C(NCCN1C(=O)CN=C(c2ccc(Cl)cc2)c2cc(Cl)ccc21)OCc1ccccc1
24.7 µM: UO-31 renal
32.9 µM: MDA-MB-435
44.6 µM: HCT-15 colon
50.4 µM: COLO 205 colon
31.9 µM: CAKI-1 renal
38.3 µM: OVCAR-8 ovarian
36 µM: SK-MEL-2 melanoma
33.8 µM: NCI-H23 lung
> 100 µM: SK-OV-3 ovarian | SW-620 colon
32.4 µM: BT-549 breast | KM12 colon
32.7 µM: A549 NSCLC | HCC-2998 colon
28.3 µM: PC-3 prostate
22.6 µM: OVCAR-4 ovarian
33.3 µM: SR leukemia
38.2 µM: HOP-62 NSCLC | SF-539 CNS

CC(=O)Oc1ccc(N2C(=O)C3c4[nH]c5ccccc5c4C4CCC(C(C)(C)C)CC4C3C2=O)cc1 (stereo unspecified)
10.4 µM: PC-3 prostate
5.14 µM: HCC-2998 colon
5.16 µM: SW-620 colon
17.8 µM: SK-MEL-2 melanoma
22.6 µM: MDA-MB-435
12.3 µM: HCT-15 colon
14.9 µM: BT-549 breast
18.3 µM: SF-539 CNS
8.79 µM: NCI-H23 lung
17.7 µM: UO-31 renal
24 µM: SK-OV-3 ovarian
13.7 µM: MCF7 breast
10.7 µM: A549 NSCLC
17.5 µM: COLO 205 colon
16 µM: CAKI-1 renal
13.5 µM: HOP-62 NSCLC | OVCAR-8 ovarian

Cc1ccc(/C=C2\CN(C)CC3C(c4ccc(C)cc4)=C(C#N)C(=O)NC23)cc1 (stereo unspecified)
not listed: SF-539 CNS | UO-31 renal | SR leukemia
> 50 µM: all other assays above

CNNC1=NS(=O)(=O)c2cc(C)c(Cl)cc2S1
0.0901 µM: UO-31 renal
not listed: MCF7 breast | SR leukemia
> 10 µM: all other assays above

CCCCCCCCCCCCCCCC(=O)ON1C(=S)NC(C)(c2ccccc2)C1=S (stereo unspecified)
not listed: MDA-MB-435 | SW-620 colon | SR leukemia
> 100 µM: all other assays above

Cc1cc(S(N)(=O)=O)c(SCc2nc(N)nc(N(C)C)n2)cc1Cl
not listed: MDA-MB-435
> 10 µM: all other assays above
